Earlier results as cited in patent US20130109633A1, “CB-183,315 Compositions and Related Methods” (Cubist Pharmaceuticals, Inc., priority 2011, published 2013).

System: a broad spectrum of bacteria, including drug-resistant bacteria and C. difficile

In the case of CB-183,315, the antibacterial activity is given as “antibacterial activity against a broad spectrum of bacteria” and the bacteriacidal activity is given as “exhibits bacteriacidal activity”.
